The text below walks through data of ChEMBL document CHEMBL5096159, “Annual review of LSD1/KDM1A inhibitors in 2020” (Eur J Med Chem, 2021).

A word on the IC50: it is the concentration that inhibits the measured activity by half.

The target in data set [1] is T1, Lysine-specific histone demethylase 1A (Homo sapiens, UniProt O60341). Kind of data set: Inhibition of LSD1 (unknown origin) by Spectra Max Paradigm Microplate Reader analysis.
The test system of another data set is MDA-MB-231. Kind of data set: Antiproliferative activity against human MDA-MB-231 cells assessed as reduction in cell viability after 24 hrs by MTT assay. The settings on record: MDA-MB-231, 24 h. It counts as functional, cell-based.
The target in data set [2] is T1, Lysine-specific histone demethylase 1A. Put plainly: Inhibition of recombinant LSD1 (unknown origin) expressed in Escherichia coli BL21 using H3K4me2 as substrate preincubated for 10 mins followed by substrate addition and measured after 30 mins by fluorescence based analysis.
Data set [3] has the same target. Kind of data set: Inhibition of recombinant LSD1 (unknown origin) using H3K4me2 as a substrate measured after 0.5 hrs by fluorescence based analysis.
The test system of a further data set is MGC-803. Kind of data set: Antiproliferative activity against human MGC-803 cells assessed as reduction in cell viability after 72 hrs by MTT assay. It counts as functional, cell-based. To be noted: MGC-803, 72 h.
A short description of data set [4]: Cytotoxicity against human GES1 cells assessed as cell viability measured after 72 hrs by MTT assay. In kind it is toxicity, cell-based.
The subject of the next data set is BGC-823. Put plainly: Antiproliferative activity against human BGC-823 cells assessed as reduction in cell viability incubated for 5 days by MTS assay. It counts as functional, cell-based. To be noted: BGC-823, 120 h.

Turning to `O=C(/C=C/c1ccc(O)c2c1[C@H](C(=O)O[C@H](Cc1ccc(O)c(O)c1)C(=O)O)[C@@H](c1ccc(O)c(O)c1)O2)O[C@H](Cc1ccc(O)c(O)c1)C(=O)O`, the IC50 came out at 0.11 µM in data set [1] and 55 µM in the data set with MDA-MB-231.
Consider `COc1ccc2cc3[n+](cc2c1OC)CCc1cc2c(cc1-3)OCO2` [BERBERINE], for which, in data set [2], the IC50 was 6.97 µM.
In the case of `COc1ccc(-c2coc3cc(O)cc(O)c3c2=O)cc1` [BIOCHANIN], the IC50 was determined as 2.95 µM in data set [3] and 6.77 µM in the data set with MGC-803. Also, in data set [4], the IC50 at 72 h was above 32 µM.
With `COc1cc(CNC(=O)CCCC/C=C/C(C)C)ccc1O` [CAPSAICIN], in the data set on BGC-823, the IC50 came out at 4.66 µM.
In the case of `COc1cc2c(cc1O)-c1cc3ccc(OC)c(OC)c3c[n+]1CC2` [COLUMBAMINE], the IC50 in data set [2] worked out at 0.47 µM.
Regarding `C[C@H]1COC2=C1C(=O)C(=O)c1c2ccc2c1CCCC2(C)C` [CRYPTOTANSHINONE], half-maximal inhibition in data set [1] (IC50) was put at 9.02 µM.
Take `Cc1cccc2c3c(ccc12)C1=C(C(=O)C3=O)[C@@H](C)CO1` [DIHYDROTANSHINONE I]: inhibition in data set [1] was half-maximal at 15.8 µM (IC50).
For `COc1cc2c(cc1O)CC[n+]1cc3c(OC)c(OC)ccc3cc1-2` [JATRORRHIZINE], the IC50 in data set [2] was 1.55 µM.
Same read-out and setting: the result for `COc1cc2c(cc1OC)-c1cc3ccc(OC)c(OC)c3c[n+]1CC2` [PALMITINE] reads 12.2 µM.
In data set [1], `O=C(/C=C/c1ccc(O)c(O)c1)O[C@H](Cc1ccc(O)c(O)c1)C(=O)O` [ROSMARINIC ACID] showed an IC50 of 20.9 µM.
Same read-out and setting: the result for `Cc1coc2c1C(=O)C(=O)c1c-2ccc2c(C)cccc12` [TANSHINONE I] reads 16.4 µM.
